In paper PMC9979163, “Discovery and functional characterization of N-(thiazol-2-yl)-benzamide analogs as the first class of selective antagonists of the Zinc-Activated Channel (ZAC)” (Biochemical pharmacology, 2021):

How the values were obtained:
[1] = molecular target: hα1β2γ2s GABAAR (Homo sapiens, UniProt P14867+P18507+P47870); assay: TEVC selectivity, hα1β2γ2s GABAAR in oocytes; assay type: cell-based; conditions: 30 μM, 30 s preapplication, 30 μM GABA (EC20–EC40)
Method: (§1) The cDNAs for the various WT and chimeric CLR subunits were linearized and subsequently transcribed and capped mMessage mMachine T7 RNA transcription kit (Ambion, Waltham, MA). […]
(§2) On the day of experiment, all compound dilutions were prepared in a saline solution [115 mM NaCl, 2.5 mM KCl, 10 mM MOPS (pH 7.5), 1.8 mM CaCl2, 0.1 mM MgCl2] and pH adjusted to 7.5 (if needed). […] Currents were recorded using pCLAMP 10 (Molecular Devices, Sunnyvale, CA). […]
(§3) In all recordings, the compounds or compound combinations were applied in the bath until the peak current decayed to a steady state (up to 30 sec at the most). […] The functional properties of the modulators at the CLRs were determined by pre-application of the modulator to the perfusate 30 sec and followed by co-application of the modulator and the agonist to the perfusate. […]
(§4) Data analysis of the results from the TEVC recordings were performed using Clampfit software version 10.5 (Molecular Devices, Crawley, UK) and GraphPad Prism version 7.0c (GraphPad Software, Inc. La Jolla, CA). […] I-V relationships were analyzed by fitting the curves with a third order polynomial model. […]

[2] = tested on: m5-HT3A/ZAC; assay: TEVC, chimeric m5-HT3A/ZAC receptor in oocytes; assay type: cell-based, mouse/human; conditions: 30 μM, 0.3 μM 5-HT
Method: as §1, §2, §3, §4

Sequence of hα1β2γ2s GABAAR (P14867 28-456): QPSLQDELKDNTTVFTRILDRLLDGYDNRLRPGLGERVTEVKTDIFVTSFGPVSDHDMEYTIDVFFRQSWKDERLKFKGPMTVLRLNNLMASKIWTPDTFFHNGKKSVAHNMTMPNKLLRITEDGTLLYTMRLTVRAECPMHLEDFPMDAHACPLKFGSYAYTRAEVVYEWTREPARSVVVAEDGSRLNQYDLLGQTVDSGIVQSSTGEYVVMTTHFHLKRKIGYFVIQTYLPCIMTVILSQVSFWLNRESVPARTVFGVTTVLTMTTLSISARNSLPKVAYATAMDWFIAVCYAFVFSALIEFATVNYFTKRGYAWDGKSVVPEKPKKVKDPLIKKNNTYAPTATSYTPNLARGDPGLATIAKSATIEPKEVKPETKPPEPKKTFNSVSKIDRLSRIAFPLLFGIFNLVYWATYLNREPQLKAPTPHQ
Sequence of hα1β2γ2s GABAAR (P47870 25-512 limits assumed): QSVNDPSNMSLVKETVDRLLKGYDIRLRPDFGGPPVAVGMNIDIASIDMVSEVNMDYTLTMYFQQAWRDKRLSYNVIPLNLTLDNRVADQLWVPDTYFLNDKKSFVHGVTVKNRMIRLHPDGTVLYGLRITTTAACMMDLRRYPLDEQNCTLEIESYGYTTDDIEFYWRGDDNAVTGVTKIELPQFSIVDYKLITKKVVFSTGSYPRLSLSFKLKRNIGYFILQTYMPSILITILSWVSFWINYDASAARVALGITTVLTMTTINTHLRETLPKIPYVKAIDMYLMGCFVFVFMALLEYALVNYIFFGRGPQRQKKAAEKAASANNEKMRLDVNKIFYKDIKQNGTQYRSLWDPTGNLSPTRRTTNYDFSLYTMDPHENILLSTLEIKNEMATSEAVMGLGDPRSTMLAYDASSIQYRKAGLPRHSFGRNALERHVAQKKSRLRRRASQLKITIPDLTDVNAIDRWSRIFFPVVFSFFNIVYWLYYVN
Sequence of hα1β2γ2s GABAAR (P18507 40-467 isoform P18507-1 limits assumed): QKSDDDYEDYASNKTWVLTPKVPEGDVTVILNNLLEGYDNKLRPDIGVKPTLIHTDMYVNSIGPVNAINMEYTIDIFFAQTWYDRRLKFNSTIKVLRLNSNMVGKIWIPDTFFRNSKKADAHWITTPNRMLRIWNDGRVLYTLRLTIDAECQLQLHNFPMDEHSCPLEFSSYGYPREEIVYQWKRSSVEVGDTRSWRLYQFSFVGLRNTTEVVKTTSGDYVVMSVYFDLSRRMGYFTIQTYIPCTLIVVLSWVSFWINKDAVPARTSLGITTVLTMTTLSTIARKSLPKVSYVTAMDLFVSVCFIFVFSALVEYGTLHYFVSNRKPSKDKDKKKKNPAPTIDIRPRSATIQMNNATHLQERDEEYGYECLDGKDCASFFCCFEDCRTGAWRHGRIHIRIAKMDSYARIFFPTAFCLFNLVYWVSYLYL

- Agonist, antagonist or PAM activity [1]: did not display significant activity
- Modulation of 5-HT-induced response [2]: complete inhibition
SMILES: CC(C)(C)c1csc(NC(=O)c2cccc(F)c2)n1 [5a, N-(4-(tert-butyl)thiazol-2-yl)-3-fluorobenzamide]
